The values that follow are results of earlier work, collected in patent publication US20060045850A1, “Nasal delivery of cyclodextrin complexes of anti-inflammatory steroids” (QPharma, LLC, priority 2004, published 2006).

For `CCC(=O)O[C@]1(C(=O)SCF)[C@H](C)C[C@H]2[C@@H]3C[C@H](F)C4=CC(=O)C=C[C@]4(C)[C@@]3(F)[C@@H](O)C[C@@]21C` [Fluticasone], the “absorption when administered orally” value (administered orally) is on record as “no absorption”. The absolute bio-availability entry (from the suspension formulation, administered nasally) is “less than 2.0%”.
